GI50 and TGI data for 10 compounds are collected here from PubChem BioAssay (NCI).

Test systems include OVCAR-5 ovarian; OVCAR-4 ovarian; CAKI-1 renal; HCT-116 colon; SK-OV-3 ovarian; A549 NSCLC; UO-31 renal; NCI/ADR-RES ovarian.
Common to all, as to assay: inhibition of tumour cell growth, NCI panel, 48 h

SMILES strings stand for the structures. Values joined by “and” are separate entries in the source; they are usually repeats but may differ in a detail not shown here. Equal values may be shown once.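 Step 1: Grow cells in 96-well plates. Step 2: Expose to compound for 48 hours at 5 concentrations. Step 3: Interpolate endpoints linearly; if unreached, use highest concentration. GI50: concentration for 50% inhibition of growth. Definition used: TGI = concentration required for complete inhibition of growth.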

Take `Nc1nc(Cl)c2ncn(Cc3ccc(C45CC6CC(CC(C6)C4)C5)c(O)c3)c2n1`: the GI50 is 6.13 µM in the test with OVCAR-5 ovarian; 0.991 µM with OVCAR-4 ovarian; 1.77 µM in the test with CAKI-1 renal; 1.1 µM in the test with HCT-116 colon; 5.64 µM in the test with SK-OV-3 ovarian; 1.29 µM in the test on A549 NSCLC. Also, the GI50 in the test on UO-31 renal was 12.7 µM; in the test on NCI/ADR-RES ovarian, 3.15 µM. Also, the TGI in the test on OVCAR-5 ovarian is 20.6 µM; in the test with OVCAR-4 ovarian it was 3.82 µM; in the test on CAKI-1 renal, 4.8 µM; in the test with HCT-116 colon, 3.15 µM; in the test with SK-OV-3 ovarian, 21.4 µM; in the test on A549 NSCLC it was 3.17 µM. The TGI amounted to 28.1 µM with UO-31 renal and 16.4 µM in the test with NCI/ADR-RES ovarian.

On to `COc1cc(C2NC(=O)c3ccccc3N2)ccc1OCCCCCOc1c(OC)cc(C2=NOC(c3cc(OC)c(OC)c(OC)c3)C2)cc1OC` (stereo not drawn), for which the GI50 in the test on OVCAR-5 ovarian is 33.9 µM; in the test with OVCAR-4 ovarian, 0.417 µM; in the test on CAKI-1 renal, greater than 42.4 µM; with HCT-116 colon it was 0.433 µM; with SK-OV-3 ovarian, 31.1 µM; with A549 NSCLC it was 2.25 µM. Also, the GI50 was 15.1 µM with UO-31 renal and 12.7 µM in the test on NCI/ADR-RES ovarian. The TGI is greater than 94.3 µM in the test with OVCAR-5 ovarian; greater than 100 µM in the test on OVCAR-4 ovarian; greater than 100 µM with CAKI-1 renal; 32.4 µM in the test on HCT-116 colon; greater than 100 µM with SK-OV-3 ovarian; 97.7 µM in the test on A549 NSCLC. Moreover, the TGI was greater than 100 µM with UO-31 renal and greater than 51.8 µM with NCI/ADR-RES ovarian.

`COc1ccc(-c2cc(=O)c3c(OC)c(OC)c(OC)cc3o2)cc1`: the TGI in the test on OVCAR-5 ovarian is greater than 100 µM; with OVCAR-4 ovarian it was greater than 100 µM; with CAKI-1 renal, greater than 100 µM; with HCT-116 colon, greater than 100 µM; with SK-OV-3 ovarian, 88.2 µM; with A549 NSCLC, 85.9 µM. The TGI in the test on UO-31 renal is 87.7 µM; in the test with NCI/ADR-RES ovarian, greater than 100 µM.

For the compound `C[C@]12CC[C@H]3[C@@H](CC=C4C[C@@H](O)CC[C@@]43C)[C@@H]1CC[C@@H]2N(CCO)CCO`, the TGI in the test on OVCAR-5 ovarian, in the test on OVCAR-4 ovarian, with CAKI-1 renal, in the test with HCT-116 colon, with SK-OV-3 ovarian and with A549 NSCLC was greater than 100 µM in each case. Further, the TGI in the test on UO-31 renal and in the test with NCI/ADR-RES ovarian was greater than 100 µM in each case.

Take `CCN(CC)CCOc1ccc(/C(=C(\Cl)c2ccccc2)c2ccccc2)cc1`: the GI50 in the test on OVCAR-5 ovarian is 3.42 µM and 3.33 µM; in the test with OVCAR-4 ovarian, 5.31 µM and 3.14 µM; in the test on CAKI-1 renal it was 5.47 µM and 1.66 µM; in the test with HCT-116 colon, 2.03 µM and 1.49 µM; in the test on SK-OV-3 ovarian, 5.38 µM and 4.67 µM; in the test on A549 NSCLC it was 2.92 µM and 4.32 µM. The GI50 with UO-31 renal is 0.856 µM and 1.49 µM; in the test with NCI/ADR-RES ovarian, 5.56 µM and 3.34 µM. In addition, the TGI was 9.95 µM and 15.2 µM in the test with OVCAR-5 ovarian; 11.3 µM and 11.6 µM in the test on OVCAR-4 ovarian; 12.3 µM and 5.48 µM in the test on CAKI-1 renal; 7.14 µM and 3.07 µM in the test with HCT-116 colon; 11.5 µM and 17.2 µM with SK-OV-3 ovarian; 9.57 µM and 15.3 µM with A549 NSCLC. Moreover, the TGI in the test with UO-31 renal is 2.62 µM and 5.9 µM; with NCI/ADR-RES ovarian it was 12.2 µM and 14.4 µM.

For the compound `COC1/C=C\C=C(/C)C(=O)NC2=CC(=O)C(=O)C(=C2O)CC(C)CC(OC)C(O)C(C)/C=C(\C)C1OC(N)=O` (stereo not drawn), the TGI in the test with OVCAR-5 ovarian is greater than 100 µM; with OVCAR-4 ovarian, 22.1 µM; in the test with CAKI-1 renal, greater than 42 µM; with HCT-116 colon, 14.4 µM; in the test with SK-OV-3 ovarian, greater than 100 µM; in the test on A549 NSCLC, greater than 100 µM. The TGI was 39.8 µM in the test on UO-31 renal and greater than 100 µM with NCI/ADR-RES ovarian.

As to `OCc1c[nH]c2ccccc12`, the GI50 in the test with OVCAR-5 ovarian was 20.8 µM; in the test with OVCAR-4 ovarian it was 33 µM; in the test with CAKI-1 renal it was 15.8 µM; in the test on HCT-116 colon it was 17.2 µM; in the test on SK-OV-3 ovarian, 26.3 µM; in the test on A549 NSCLC it was 20.8 µM. The GI50 in the test with UO-31 renal was 6.29 µM; in the test on NCI/ADR-RES ovarian, 23.2 µM. In addition, the TGI with OVCAR-5 ovarian is 58.6 µM; with OVCAR-4 ovarian, greater than 100 µM; in the test with CAKI-1 renal, 52.8 µM; in the test on HCT-116 colon it was 31.9 µM; in the test with SK-OV-3 ovarian, 98.9 µM; with A549 NSCLC, 57.9 µM. For the same compound, the results for the TGI in the test with UO-31 renal and with NCI/ADR-RES ovarian were 50.9 µM and 71.4 µM, respectively.

With `CC(=O)OCCN1c2ccccc2Sc2cnccc21`, the TGI with OVCAR-5 ovarian, in the test on OVCAR-4 ovarian, with CAKI-1 renal, in the test with HCT-116 colon, in the test on SK-OV-3 ovarian and in the test on A549 NSCLC was greater than 10 µM throughout. For the same compound, the TGI in the test on UO-31 renal and with NCI/ADR-RES ovarian was greater than 10 µM each time.

In the case of `O=C1Nc2c(C(F)(F)F)cccc2[C@]1(c1ccc(O)cc1)c1ccc(OC(F)(F)F)cc1`, the GI50 with OVCAR-5 ovarian was 12 µM; in the test with OVCAR-4 ovarian it was 0.543 µM; with CAKI-1 renal, 10.1 µM; with HCT-116 colon, 7.73 µM; in the test with SK-OV-3 ovarian it was 17.3 µM; with A549 NSCLC, 5.26 µM. The results for the GI50 in the test with UO-31 renal and in the test with NCI/ADR-RES ovarian were 6.45 µM and 8.78 µM, respectively. Moreover, the TGI in the test on OVCAR-5 ovarian came to 24.4 µM; in the test on OVCAR-4 ovarian, 5.23 µM; in the test on CAKI-1 renal, 22.7 µM; with HCT-116 colon it was 23.9 µM; in the test on SK-OV-3 ovarian it was 36.5 µM; with A549 NSCLC, 20 µM. The values for the TGI in the test on UO-31 renal and in the test with NCI/ADR-RES ovarian were 20 µM and 25.8 µM, respectively.

As for `N#Cc1ccc(O)c(C2=NCC(c3cccc(Oc4ccccc4)c3)O2)c1` (stereo not drawn), the GI50 was 2.95 µM in the test on OVCAR-5 ovarian; 0.519 µM with OVCAR-4 ovarian; 0.392 µM with CAKI-1 renal; 0.587 µM in the test with HCT-116 colon; 1.58 µM with SK-OV-3 ovarian; 0.876 µM in the test with A549 NSCLC. Besides, the GI50 with UO-31 renal was 0.449 µM; with NCI/ADR-RES ovarian it was 0.29 µM. Besides, the TGI with OVCAR-5 ovarian is greater than 100 µM; in the test on OVCAR-4 ovarian, greater than 100 µM; with CAKI-1 renal it was 37.9 µM; in the test with HCT-116 colon, 13.7 µM; in the test on SK-OV-3 ovarian, 21.3 µM; in the test on A549 NSCLC, 11.8 µM. Moreover, the TGI is 2.75 µM in the test with UO-31 renal and 6.51 µM in the test with NCI/ADR-RES ovarian.
